Assay results reported in patent US20230382886A1, “CONJUGATED TLR7 AND NOD2 AGONISTS” (UNIVERZA V LJUBLJANI, priority 2020, published 2023).

What was measured:
[1] = tested on: CD4 positive T-lymphocytes; assay: Antigen presentation of BMDCs to CD4+ T-lymphocytes; type: cell-based, mouse; conditions: for dose dependence of BMDC antigen presentation to CD4 positive T-lymphocytes: 1 nM to 1 μM, FIG. 5; for ability to promote BMDC antigen presentation to CD4 positive T-lymphocytes (ratio of CD25 positive T-lymphocytes with low CFSE fluorescence): 100 nM, ovalbumin, FIG. 3
Description: (§1) The effect of the conjugated compounds of the invention on antigen presentation of mouse bone marrow derived dendritic cells (BMDCs) to T-lymphocytes was examined.
(§2) BMDCs were obtained by harvesting bone marrow from mouse hind legs. The harvested cells were then cultured for 10 days in the presence of granulocyte-macrophage colony-stimulating factor
(§3) (GM-CSF) to ensure differentiation into dendritic cells. BMDCs were seeded on 96 well microtiter plates at 10.000 cells per well and stimulated in duplicates with conjugated compounds and ovalbumin (50 μg/mL) at 37° C. for 20 h. After this period, the supernatants were removed and either CD4+ T-Iymphocytes or CD8+ T-Iymphocytes were added.
(§4) The compounds were prepared as follows: First, stock solutions of the conjugated compounds were prepared in DMSO at a 1 mM concentration. The working dilutions of the conjugated compounds in medium were then added directly to BMDCs to ensure final concentrations ranging from 1 nM to 1 μM.
(§5) CD4+ and CD8+ T-lymphocytes were obtained from single-cell suspensions of spleens from OT-II and OT-I transgenic mice, respectively. These express a T-cell receptor that pairs with the CD4 or CD8 co-receptors and is specific for the ovalbumin antigen. After harvesting the spleen, CD4+ or CD8+ cell fractions were enriched with MACS separation technology (Miltenyi Biotec CD4+ T Cell Isolation Kit or CD8+ T Cell Isolation Kit, respectively). T-lymphocytes were then stained with CFSE and added to BMDCs at 50.000 cells per well.
(§6) After co-culturing the BMDCs and T-lymphocytes for 72 hours at 37° C., T-lymphocyte activation was assessed with flow cytometry by measuring the expression of CD25, characteristic for activated T-lymphocytes. Concurrently, the intensity of CFSE fluorescence was measured to evaluate T-lymphocyte proliferation. […] SG48, SG144 and RH32 were the tested conjugated compounds of the invention. Medium was used as a negative control. LPS (1 μg/mL) was used as the positive control. Intermediary compound SG8 was employed as a known NOD2 agonist of the desmuramylpeptide type (Gobec et al. 2018). Intermediary compound SG43 was employed as a known TLR7 agonist of the purine type (Akinbobuyi et al. 2016). The combination of SG8 and SG43 was employed to compare the activity of conjugated compounds against an unconjugated mixture of NOD2 and TLR7 agonists.

MEC-1 cancer cell line = assay: PBMC cytotoxicity assay against MEC-1 target cells; type: cell-based; conditions: 1 μM; control medium; FIG. 1
Description: (§7) The TLR7 and NOD2 conjugated compounds of the invention were tested for their ability to activate the cytotoxic activity of peripheral blood mononuclear cells (PBMCs) towards cancer cell lines. The main effector fraction of PBMCs in this assay are natural killer (NK) cells, which play an essential role in the innate immune system through their direct cytotoxic activity against aberrant cells, especially tumour cells and virally infected cells. The flow cytometry-based method described hereafter measures the PBMC cytotoxic activity against target cancer cell lines by co-incubating PBMCs and cancer cells, which were pre-labelled by carboxyfluorescein succinimidyl ester (CFSE) to distinguish them from effector cells. Successful activation of effector cells by the tested compounds leads to higher degree of cell death in the target cell population.
(§8) Chronic myelogenous leukaemia K562 and chronic B cell leukaemia MEC-1 cell lines were used as target cells in the assay. Both cell lines were pre-cultured for at least 10 days before the assay was performed. Immediately prior to the addition of target cells to PBMCs, target cells were stained with CFSE at 2 μM for 15 minutes at 37° C. in the dark. Cells were then washed with medium and resuspended at 200.000 cells/mL.
(§9) PBMCs were isolated from whole blood by centrifugation with the Ficoll-Paque density gradient solution. After centrifugation, PBMCs were washed twice with PBS and resuspended in medium at 4.000.000 cells/mL. To perform the assay, PBMCs were seeded on 96 well microtiter plates at 400.000 cells per well and cultured in duplicates at 37° C. for 20 h in the presence of the compounds.
(§10) The compounds were prepared as follows: First, stock solutions of the conjugated compounds were prepared in DMSO at a 1 mM concentration. […]
(§11) After incubating the PBMCs in the presence of compounds, 10.000 CFSE stained target cells were added to each well for a final 40:1 ratio of effector cells versus target cells. After 4 h of co-incubation, cells were stained with the SYTOXTM Blue (Invitrogen) nucleic acid stain and analysed with flow cytometry. […]

K562 cancer cell line = assay: PBMC cytotoxicity assay against K562 target cells; type: cell-based; conditions: 1 μM; control medium; FIG. 2
Description: as §7, §8, §9, §10, §11

[2] = tested on: CD8 positive T-lymphocytes; assay: Antigen presentation of BMDCs to CD8+ T-lymphocytes; type: cell-based, mouse; conditions: for dose dependence of BMDC antigen presentation to CD8 positive T-lymphocytes: 1 nM to 1 μM, FIG. 6; for ability to promote BMDC antigen presentation to CD8 positive T-lymphocytes (ratio of CD25 positive T-lymphocytes with low CFSE fluorescence): 100 nM, ovalbumin, FIG. 4
Description: as §1, §2, §3, §4, §5, §6

SMILES | dose dependence of BMDC antigen presentation to CD4 positive T-lymphocytes [1] | ability to promote BMDC antigen presentation to CD4 positive T-lymphocytes (ratio of CD25 positive T-lymphocytes with low CFSE fluorescence) [1] | ability to activate the cytotoxic activity of PBMCs against the MEC-1 cancer cell line (ratio against the control) (MEC-1 cancer cell line) | ability to activate the cytotoxic activity of PBMCs against the K562 cancer cell line (ratio against the control) (K562 cancer cell line) | dose dependence of BMDC antigen presentation to CD8 positive T-lymphocytes [2] | ability to promote BMDC antigen presentation to CD8 positive T-lymphocytes (ratio of CD25 positive T-lymphocytes with low CFSE fluorescence) [2]
CCCCOc1nc(N)c2nc(O)n(Cc3ccc(C(=O)NCCOCCNC(=O)CC[C@@H](NC(=O)[C@@H](NC(=O)CNC(=O)/C=C/c4ccc(O)c(OC)c4)C(C)C)C(=O)OCC)cc3)c2n1 [SG144, Ethyl N5-(2-(2-(4-((6-amino-2-butoxy-8-hydroxy-9H-purin-9-yl)methyl)benzamido)ethoxy)ethyl)-N2-((E)-3-(4-hydroxy-3-methoxyphenyl)acryloyl)glycyl-L-yalyl-D-glutaminate] | dose-dependent | promote BMDC antigen presentation | activate the cytotoxic activity of PBMCs | activate the cytotoxic activity of PBMCs | dose-dependent | promote BMDC antigen presentation
CCCCOc1nc(N)c2nc(O)n(Cc3ccc(C(=O)NCCOCCOCCNC(=O)CC[C@@H](NC(=O)[C@@H](NC(=O)CNC(=O)/C=C/c4ccc(O)c(OC)c4)C(C)C)C(=O)OCC)cc3)c2n1 [RH32] | – | promote BMDC antigen presentation | activate the cytotoxic activity of PBMCs | activate the cytotoxic activity of PBMCs | – | promote BMDC antigen presentation
CCCCOc1nc(N)c2nc(O)n(Cc3ccc(C(=O)NCCCCCC(=O)Oc4ccc(/C=C/C(=O)NCC(=O)N[C@H](C(=O)N[C@H](CCC(=O)OCC)C(=O)OCC)C(C)C)cc4OC)cc3)c2n1 [SG48, Diethyl ((E)-3-(4-((6-(4-((6-amino-2-butoxy-8-hydroxy-9H-purin-9-yl)methyl)benzamido)hexanoyl)-oxy)-3-methoxyphenyl)acryloyl)glycyl-L-yalyl-D-glutamate] | dose-dependent | promote BMDC antigen presentation | activate the cytotoxic activity of PBMCs | activate the cytotoxic activity of PBMCs | dose-dependent | promote BMDC antigen presentation
